Data on 51 compounds can be found in the Deep4Chem optical property database.

Each structure is given as a SMILES string. Values joined by “and” are separate entries in the source; they are usually repeats but may differ in a detail not shown here. Identical values can stand only once.

The nature of this data set: solvent given as SMILES.

Regarding `COC(=O)/C=C/c1ccc2ccc3cccc4ccc1c2c34`, the fluorescence lifetime (in C1CCOC1) is 2.8 ns, the fluorescence lifetime (in CC#N) turned out to be 2.4 ns and the fluorescence lifetime (in CC(C)=O) was 2.6 ns.
`COc1cc2cc(/C=C/c3ccc(/C=C(\C#N)C(=O)O)cc3)c(=O)oc2cc1OC` yielded a fluorescence lifetime (in CC#N) of 2.06 ns.
With `Cc1cccc(C)c1/C=C/c1nc(N2CCOCC2)c2c([n+]1[O-])CCCC2`, the fluorescence lifetime (in ClCCl) came out at 9.1 ns.
`COc1ccc2cc(/C=C/c3ccc([N+](=O)[O-])cc3)c(=O)oc2c1` displayed a fluorescence lifetime (in CC#N) of 1.23 ns.
`COc1ccc(N(c2ccc(/C=C(\C)c3ccccc3)cc2)c2ccc(/C=C(\C)c3ccccc3)cc2)cc1` had a fluorescence lifetime (in Cc1ccccc1) of 1.5 ns.
In turn, `CC(C)(C)c1ccc2c(c1)B1c3cc(C(C)(C)C)ccc3Oc3cc(N4c5ccccc5C(C)(C)c5ccccc54)cc(c31)O2` showed a fluorescence lifetime (in Cc1ccccc1) of 6.6 ns.
With `c1ccc2cc3cc(-c4cc(-c5nccs5)nc(-c5nccs5)c4)ccc3cc2c1`, the fluorescence lifetime runs as follows: (in CC#N) 6.92 ns; (in CCCCCC) 3.35 ns; (in CO) 4.04 ns; (in ClC(Cl)Cl) 4.22 ns.
Regarding `COC(=O)/C(C#N)=c1\s/c(=c2/s/c(=C(/C#N)C(=O)OC)c3cc(-c4ccc(F)cc4)sc23)c2sc(-c3ccc(F)cc3)cc12`, under “in Cc1ccccc1”, the fluorescence lifetime was 2.9 ns.
`CC1=[N+]2C(=C(c3ccc(C=O)cc3)c3ccc(C)n3[B-]2(F)F)C=C1c1cc2n(c1)[B-](F)(F)[N+]1=CC=CC1=C2c1c(C)cc(C)cc1C` showed a fluorescence lifetime (in C1CCCCC1) of 2.7 ns and a fluorescence lifetime (in CCOC(C)=O) of 0.9 ns.
In the case of `CN(C)c1ccc2cc3ccc(=[N+](C)C)cc-3oc2c1`, the fluorescence lifetime was determined as 2.26 ns (in CCO) and 1.86 ns (in O).
As for `CC(C)(C)c1ccc(C2=c3sc(-c4ccc(C(C)(C)C)cc4)cc3=[N+]3C2=Nc2c(-c4ccc(C(C)(C)C)cc4)c4sc(-c5ccc(C(C)(C)C)cc5)cc4n2[B-]3(F)F)cc1`, where the note is “in ClC(Cl)Cl”, the fluorescence lifetime came to 1.69 ns.
Regarding `c1cnc2c(c1)c1nc(-c3ccc(-c4nc5c6cccnc6c6ncccc6c5[nH]4)cc3)[nH]c1c1cccnc12`, the fluorescence lifetime (in CS(C)=O) amounted to 1.36 ns.
In turn, `COc1ccc(/C=C/c2ccc(-c3ccc(C)cn3)nc2)cc1` yielded a fluorescence lifetime (in CC#N) of 0.58 ns.
Under “in C1CCOC1”, `CCn1c2ccccc2c2cc(-c3cc(-c4ccc5c(c4)c4ccccc4n5CC)nc(-c4ccccc4)n3)ccc21` came in with a fluorescence lifetime of 1.77 ns.
Take `COc1ccccc1-c1c(-c2ccccc2O)nc(-c2ccc(C(F)(F)F)cc2)n1-c1ccc(C)cc1`: the fluorescence lifetime by setting is: (in C1CCOC1) 2.82 ns; (in CC(C)O) 1.8 ns; (in CO) 1.5 ns; (in CS(C)=O) 2.2 ns; (in ClC(Cl)Cl) 0.96 ns; (in ClCCl) 3.82 ns.
For `CCN(CC)c1ccc2cc(C#N)/c(=N\C(=O)c3ccccc3)oc2c1`, the fluorescence lifetime (in ClCCl) came out at 3 ns.
For the compound `C(#Cc1nccnc1C#Cc1ccccc1)c1ccccc1`, under “in CC#N”, the fluorescence lifetime is 0.336 ns.
In turn, `COc1ccc(/C=C/C2=[O+][B-](F)(F)OC(/C=C/c3ccc(OC)cc3)=C2c2ccc(OC)cc2)cc1` registered a fluorescence lifetime (in ClCCl) of 1.31 ns.
`CCN(CC)c1ccc(-c2nc3c(c4c2-c2ccccc2CC4)-c2ccccc2CC3)cc1` returned a fluorescence lifetime (in C1CCOC1) of 1.06 ns; a fluorescence lifetime (in CC#N) of 0.68 ns; a fluorescence lifetime (in CCOC(C)=O) of 0.85 ns; a fluorescence lifetime (in CO) of 0.68 ns; a fluorescence lifetime (in CS(C)=O) of 1.02 ns; a fluorescence lifetime (in Cc1ccccc1) of 0.8 ns. Also, the fluorescence lifetime (in ClCCl) is 1.22 ns.
For `Cc1ccc(NC(=O)c2sc(Br)nc2C)cc1`, the fluorescence lifetime by setting is: (in CO) 0.22 ns; (in ClC(Cl)Cl) 0.12 ns.
For the compound `Cc1ccc(-n2c3ccccc3c3cc(-c4ccc5[n+](c4)[B-](F)(F)n4c-5nc5c6ccccc6c6ccccc6c54)ccc32)cc1`, for the setting “in ClC(Cl)Cl”, the fluorescence lifetime is 15 ns.
On to `CC1=CC(C)=[N+]2C1=C(c1ccc(I)cc1)c1c(C)cc(C)n1[B-]2(Oc1ccc(Cl)cc1)Oc1ccc(Cl)cc1`, for which, for the setting “in ClC(Cl)Cl”, the fluorescence lifetime came out at 0.37 ns.
Take `c1ccc(-c2c3ccccc3c(-c3cncnc3)c3ccccc23)cc1`: the fluorescence lifetime is, setting by setting: (in CCO) 3.5 ns; (in ClCCl) 6.9 ns.
Turning to `CC[n+]1c(C=C2C(=O)C(C=C3Sc4cc(Cl)ccc4N3C)=C2[O-])[se]c2ccccc21`, the fluorescence lifetime is 0.83 ns (in CO) and 4.41 ns (in ClC(Cl)Cl).
Compound `N#Cc1ccc2cc[nH]c2c1` came in with a fluorescence lifetime (in C1CCOC1) of 3.7 ns; a fluorescence lifetime (in C1COCCO1) of 3.9 ns; a fluorescence lifetime (in CC#N) of 3.8 ns; a fluorescence lifetime (in CC(C)O) of 3.7 ns; a fluorescence lifetime (in CCO) of 3.7 ns; a fluorescence lifetime (in CO) of 3.5 ns. Moreover, the fluorescence lifetime turned out to be 4.3 ns (in CS(C)=O); 4.2 ns (in NC=O); 0.6 ns (in O); 0.8 ns (in OCC(F)(F)F); 1.1 ns (in [2H]OC([2H])([2H])C(F)(F)F); 0.8 ns (in [2H]O[2H]).
For the compound `CCCCCCn1c2ccccc2c2cc(-c3ccc(-c4cc(-c5ccccn5)nc(-c5ccccn5)c4)cc3)ccc21`, under “in ClCCl”, the fluorescence lifetime turned out to be 1.51 ns.
The compound `CCCCCCCCCCOc1ccc(C#Cc2cc3c(C#Cc4ccc(OCCCCCCCCCC)cc4)c(C#Cc4ccc(OCCCCCCCCCC)cc4)c4cc(C#Cc5ccc(OCCCCCCCCCC)cc5)cc5c(C#Cc6ccc(OCCCCCCCCCC)cc6)c(C#Cc6ccc(OCCCCCCCCCC)cc6)c(c2)c3c45)cc1` came in with a fluorescence lifetime (in ClCCl) of 15.3 ns.
`Cn1cccc1-c1ccc(C#N)cc1`: the fluorescence lifetime turned out to be 5.4 ns (in CC#N), 1.8 ns (in CCCCCC) and 5.21 ns (in CCOCC).
Compound `CCCc1c(C(=O)c2ccc3c4c(cccc24)-c2cccc4c2C3CC=C4)c2ccc3cccc4c5cccc6ccc1c(c65)c2c34` (stereo not drawn) gave a fluorescence lifetime (in ClCCl) of 1.04 ns.
Take `CSc1ccc(C#Cc2ccc(C#Cc3ccc(C#Cc4ccccc4C#N)cc3C#N)cc2C#N)cc1`: under “in ClC(Cl)Cl”, the fluorescence lifetime worked out at 1.29 ns.
As to `CC(=O)O[B-]1(OC(C)=O)OC(/C=C/C=C/c2ccccc2)=CC(/C=C/C=C/c2ccccc2)=[O+]1`, the fluorescence lifetime runs as follows: (in C1CCOC1) 2.38 ns; (in CC#N) 1.81 ns; (in CC(C)=O) 1.77 ns; (in CS(C)=O) 2.03 ns; (in Cc1ccccc1) 2.57 ns; (in ClC(Cl)Cl) 1.93 ns. Under “in ClCCl”, this compound had a fluorescence lifetime of 1.84 ns.
Compound `COc1ccc(-c2ccc3c(c2)c2cc(-c4ccc(OC)cc4)ccc2n3-c2ccc(C(=O)c3ccc4sc5ccccc5c4c3)nc2)cc1` had a fluorescence lifetime (in c1cc(-n2c3ccccc3c3ccccc32)cc(-n2c3ccccc3c3ccccc32)c1) of 8.4 ns.
Compound `CC[B-]1(CC)c2cccc3c4c5c(cccc5c(c23)-c2cccc(C)[n+]21)[B-](CC)(CC)[n+]1c(C)cccc1-4` displayed a fluorescence lifetime (in ClCCl) of 11.1 ns.
As to `CCN(CC)c1ccc2cc(/C=C/C(=C(C#N)C#N)c3ccc(N(c4ccccc4)c4ccccc4)cc3)c(=O)oc2c1`, the fluorescence lifetime (in CC(C)=O) worked out at 0.59 ns; the fluorescence lifetime (in CCOC(C)=O) turned out to be 1.31 ns; the fluorescence lifetime (in CN(C)C=O) amounted to 0.33 ns; the fluorescence lifetime (in CS(C)=O) was 0.33 ns; the fluorescence lifetime (in Cc1ccccc1) is 0.84 ns; the fluorescence lifetime (in ClCCl) was 2.88 ns.
`CC1=[N+]2C(=C(c3ccccc3)c3ccc(/C=C/c4ccc(C(=C(c5ccccc5)c5ccccc5)c5ccccc5)cc4)n3[B-]2(F)F)C=C1`: the fluorescence lifetime (in C1CCOC1) is 5.43 ns.
`CC(C)c1cccc(C(C)C)c1N1C(=O)c2cccc3c(Oc4ccccc4)ccc(c23)C1=O` displayed a fluorescence lifetime (in ClCCl) of 4.67 ns.
With `BrCCCCCCCCCCCCOc1cc2ccc3cccc4ccc(c1)c2c34`, the fluorescence lifetime (in Cc1ccccc1) turned out to be 60 ns.
For the setting “in CC#N”, `COc1cc2cc(C#Cc3ccc(/C=C(\C#N)C(=O)O)cc3)c(=O)oc2cc1OC` gave a fluorescence lifetime of 1.16 ns.
The compound `c1ccc(N(c2ccccc2)c2c3ccccc3cc3ccccc23)cc1` showed a fluorescence lifetime (in Cc1ccccc1) of 21 ns.
With `CCCCCCOc1ccc(N(c2ccc(OCCCCCC)cc2)c2ccc(-c3sc(-c4ccc(N(c5ccc(OCCCCCC)cc5)c5ccc(OCCCCCC)cc5)cc4)c4nc(CC)c(CC)nc34)cc2)cc1`, the fluorescence lifetime by setting is: (in CN(C)C=O) 0.92 ns; (in ClC(Cl)Cl) 1.09 ns.
On to `Brc1c(Br)c2ccc3c(Br)c(Br)c4ccc5ccc1c1c5c4c3c21`, for which the fluorescence lifetime (in C1CCCCC1) came out at 0.058 ns.
Take `O=C([O-])c1ccc(C(=O)[O-])c(C2=c3cc4c5c(c3Oc3c2cc2c6c3CCCN6CCC2)CCC[N+]=5CCC4)c1`: the fluorescence lifetime reads like this: (in CCO) 5.21 ns; (in O) 4.79 ns.
On to `CCN(CC)c1ccc2cc(-c3nc4ccccc4s3)c(=O)oc2c1`, for which the fluorescence lifetime is, setting by setting: (in C1CCCCC1) 2.38 ns; (in CC1CCCCC1) 2.32 ns; (in CC#N) 3.2 ns and 2.55 ns; (in CCC(C)CC) 2.38 ns; (in CCCCCC) 2.37 ns; (in CCO) 2.5 ns. Also, where the note is “in CCOC(C)=O”, the fluorescence lifetime was 2.46 ns.
The compound `Nc1nc2ccc([N+](=O)[O-])cc2s1` showed a fluorescence lifetime (in CC#N) of 4.11 ns and a fluorescence lifetime (in ClCCl) of 3.53 ns.
Take `CC(C)(C)[Si](C)(C)c1cccc2ccccc12`: the fluorescence lifetime (in C1CCCCC1) was determined as 56 ns.
`COc1ccc(-c2c3cc4cc(C)sc4cc3c(C#Cc3ccccc3)c3cc4cc(C)sc4cc23)cc1`: the fluorescence lifetime (in ClCCl) was found to be 10.8 ns.
On to `CCN(CC)c1ccc2c(c1)oc(=O)c1c(C)nc3c(c(-c4ccccc4)nn3-c3ccccc3)c12`, for which the fluorescence lifetime (in ClCCl) was determined as 3.51 ns.
For the compound `N#Cc1c2ccccc2cc2ccccc12`, the fluorescence lifetime by setting is: (in C1CCCCC1) 12.7 ns; (in CO) 16 ns.
Take `CCN(CC)c1ccc2cc3c(cc2c1)C1(c2ccccc2Oc2ccccc21)c1cc2cc(N(CC)CC)ccc2cc1C3=O`: the fluorescence lifetime (in CC#N) is 2.5 ns.
On to `COc1cc(/C=C2/SC(=O)NC2=O)ccc1O`, for which the fluorescence lifetime is, setting by setting: (in C1CCCCC1) 0.61 ns; (in C1COCCO1) 1.3 ns; (in CC#N) 0.291 ns; (in CN(C)C=O) 4.11 ns; (in CO) 0.25 ns; (in O) 0.281 ns. Also, the fluorescence lifetime reads like this: (in OCC(O)CO) 5.79 ns; (in OCCO) 2.52 ns.
In turn, `F[B-]12Oc3ccccc3-c3c4[n+]5c(c([n+]31)-c1ccccc1O2)-c1ccccc1O[B-]5(F)Oc1ccccc1-4` returned a fluorescence lifetime (in ClCCl) of 4.52 ns.
